Laboratory results reported in patent US12552775B2, “Compounds and uses thereof” (Foghorn Therapeutics Inc., priority 2020, dated 2026).

What was measured:
[1] = biological target: T1, HiBit-BRG1 fusion protein (Homo sapiens, UniProt P51532); test: HiBiT-BRG1 cell-based degradation assay (Nano-Glo HiBiT Lytic Detection, 24 h); conditions: stable HeLa cell line expressing HiBit-BRG1 and LgBit, top dose 30 μM, read-out: BRG1 HiBit Degradation Maximum (%)
T1 construct: expressed in transfected cells
T1 sequence (P51532 whole entry, the tested form may be a part): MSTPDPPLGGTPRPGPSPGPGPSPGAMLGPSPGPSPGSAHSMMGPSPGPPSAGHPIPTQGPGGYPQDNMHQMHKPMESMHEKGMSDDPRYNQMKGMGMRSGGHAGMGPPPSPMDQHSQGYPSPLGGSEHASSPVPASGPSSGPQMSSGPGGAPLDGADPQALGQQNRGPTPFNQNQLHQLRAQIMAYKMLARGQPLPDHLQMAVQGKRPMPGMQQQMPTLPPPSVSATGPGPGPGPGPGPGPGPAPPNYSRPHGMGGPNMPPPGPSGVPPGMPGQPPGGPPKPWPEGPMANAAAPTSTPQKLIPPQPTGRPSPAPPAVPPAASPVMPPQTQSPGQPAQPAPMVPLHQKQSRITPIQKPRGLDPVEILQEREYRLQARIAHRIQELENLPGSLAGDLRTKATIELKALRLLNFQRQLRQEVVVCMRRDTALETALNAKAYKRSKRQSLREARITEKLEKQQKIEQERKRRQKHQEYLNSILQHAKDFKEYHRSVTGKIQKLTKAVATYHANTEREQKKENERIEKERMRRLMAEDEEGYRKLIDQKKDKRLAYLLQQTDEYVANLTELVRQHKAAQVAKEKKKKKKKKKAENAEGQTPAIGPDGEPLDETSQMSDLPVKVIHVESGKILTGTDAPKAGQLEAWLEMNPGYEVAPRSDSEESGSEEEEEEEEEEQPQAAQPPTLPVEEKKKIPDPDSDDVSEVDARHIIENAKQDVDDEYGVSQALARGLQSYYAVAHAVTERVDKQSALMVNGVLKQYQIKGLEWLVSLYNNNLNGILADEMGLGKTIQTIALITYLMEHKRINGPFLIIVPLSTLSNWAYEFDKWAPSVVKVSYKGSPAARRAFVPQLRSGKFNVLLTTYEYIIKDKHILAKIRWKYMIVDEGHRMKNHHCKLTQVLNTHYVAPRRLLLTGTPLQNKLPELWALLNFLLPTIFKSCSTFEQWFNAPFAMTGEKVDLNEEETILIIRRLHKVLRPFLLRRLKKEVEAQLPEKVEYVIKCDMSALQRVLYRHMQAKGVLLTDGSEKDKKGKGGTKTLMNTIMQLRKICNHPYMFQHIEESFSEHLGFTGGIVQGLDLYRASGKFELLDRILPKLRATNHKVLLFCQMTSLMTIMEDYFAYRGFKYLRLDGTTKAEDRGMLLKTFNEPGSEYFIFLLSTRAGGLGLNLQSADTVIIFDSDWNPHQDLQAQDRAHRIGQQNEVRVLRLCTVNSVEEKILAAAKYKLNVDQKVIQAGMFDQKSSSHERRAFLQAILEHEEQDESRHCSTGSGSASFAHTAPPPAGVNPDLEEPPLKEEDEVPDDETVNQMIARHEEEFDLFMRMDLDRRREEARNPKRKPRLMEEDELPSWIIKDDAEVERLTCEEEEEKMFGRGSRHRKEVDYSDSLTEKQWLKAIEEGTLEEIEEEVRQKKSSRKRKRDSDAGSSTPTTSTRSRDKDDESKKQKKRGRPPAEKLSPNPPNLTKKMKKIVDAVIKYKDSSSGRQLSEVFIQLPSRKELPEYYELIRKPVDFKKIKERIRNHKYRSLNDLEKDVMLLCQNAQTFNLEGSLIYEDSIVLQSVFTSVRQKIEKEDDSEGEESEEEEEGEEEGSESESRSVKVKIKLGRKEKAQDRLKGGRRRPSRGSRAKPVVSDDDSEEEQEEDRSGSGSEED
In short: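 HeLa cells stably expressing HiBiT-BRG1 plus LgBiT were treated with 10-point 3-fold compound dilutions (top 30 μM final) for 24 h. Lytic Nano-Glo HiBiT luminescence was read. % degradation was normalised between DMSO (high control) and 2 μM of a reference BRM/BRG1 degrader (low control).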

[2] = biological target: T2, HiBit-BRM fusion protein (Homo sapiens, UniProt P51531); test: HiBiT-BRM cell-based degradation assay (Nano-Glo HiBiT Lytic Detection, 24 h); conditions: stable HeLa cell line expressing HiBiT-BRM, top dose 30 μM
T2 construct: expressed in transfected cells
T2 sequence (P51531 whole entry, the tested form may be a part): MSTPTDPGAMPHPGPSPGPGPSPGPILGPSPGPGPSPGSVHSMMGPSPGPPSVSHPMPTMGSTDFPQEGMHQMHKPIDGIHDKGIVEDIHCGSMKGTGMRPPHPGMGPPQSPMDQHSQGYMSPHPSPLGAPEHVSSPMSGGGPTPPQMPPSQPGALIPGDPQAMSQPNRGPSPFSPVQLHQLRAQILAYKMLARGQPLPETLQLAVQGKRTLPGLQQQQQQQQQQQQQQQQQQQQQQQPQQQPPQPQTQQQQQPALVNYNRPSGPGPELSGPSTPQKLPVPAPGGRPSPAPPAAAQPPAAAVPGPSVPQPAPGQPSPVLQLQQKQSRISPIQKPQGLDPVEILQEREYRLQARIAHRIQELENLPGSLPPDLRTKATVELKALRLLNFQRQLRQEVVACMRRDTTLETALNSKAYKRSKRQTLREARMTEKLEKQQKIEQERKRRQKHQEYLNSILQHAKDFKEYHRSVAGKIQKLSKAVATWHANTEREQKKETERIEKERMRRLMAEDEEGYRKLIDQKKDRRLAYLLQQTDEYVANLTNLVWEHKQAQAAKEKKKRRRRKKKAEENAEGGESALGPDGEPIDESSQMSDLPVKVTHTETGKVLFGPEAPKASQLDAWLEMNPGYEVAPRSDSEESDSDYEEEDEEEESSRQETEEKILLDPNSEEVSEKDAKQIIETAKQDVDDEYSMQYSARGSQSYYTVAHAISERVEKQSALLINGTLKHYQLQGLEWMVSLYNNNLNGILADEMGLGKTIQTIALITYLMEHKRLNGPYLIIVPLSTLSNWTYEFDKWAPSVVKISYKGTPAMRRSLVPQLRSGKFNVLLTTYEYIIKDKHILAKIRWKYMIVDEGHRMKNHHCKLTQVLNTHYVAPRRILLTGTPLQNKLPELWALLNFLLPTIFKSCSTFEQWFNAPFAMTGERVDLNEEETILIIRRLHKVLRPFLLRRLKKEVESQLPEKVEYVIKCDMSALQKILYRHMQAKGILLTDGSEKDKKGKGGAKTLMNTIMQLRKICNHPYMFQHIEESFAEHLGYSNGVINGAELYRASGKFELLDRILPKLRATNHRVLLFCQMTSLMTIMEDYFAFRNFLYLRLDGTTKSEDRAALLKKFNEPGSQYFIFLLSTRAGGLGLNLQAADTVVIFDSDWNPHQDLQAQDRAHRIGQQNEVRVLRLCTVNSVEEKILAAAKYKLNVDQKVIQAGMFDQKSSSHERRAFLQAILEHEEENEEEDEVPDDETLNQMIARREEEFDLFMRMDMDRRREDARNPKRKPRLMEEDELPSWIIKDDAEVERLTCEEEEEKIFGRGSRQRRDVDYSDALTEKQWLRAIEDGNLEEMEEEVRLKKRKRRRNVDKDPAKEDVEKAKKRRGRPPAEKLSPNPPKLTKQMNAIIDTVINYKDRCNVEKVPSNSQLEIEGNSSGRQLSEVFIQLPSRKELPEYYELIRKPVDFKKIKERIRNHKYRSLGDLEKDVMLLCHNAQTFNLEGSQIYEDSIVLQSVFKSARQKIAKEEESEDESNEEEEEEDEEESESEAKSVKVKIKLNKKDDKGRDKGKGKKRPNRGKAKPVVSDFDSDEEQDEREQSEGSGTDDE
In short: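 Stable HiBiT-BRM HeLa cells were treated with 10-point 3-fold serial dilutions (30 μM final top dose, duplicate) for 24 h, then lysed with LgBiT-containing detection reagent and luminescence read. Degradation % was normalised to DMSO (high control) and 2 μM reference BRM/BRG1 degrader (low control).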

Row | Structure (SMILES) | Dmax [1] [%] | BRM HiBit Degradation Maximum (%) [2]
1 | Nc1nnc(-c2ccccc2O)cc1OCC12CC(C(=O)NCCC3CCN(c4ccc5c(c4)C(=O)N(C4CCC(=O)NC4=O)C5=O)CC3)(C1)C2 (stereo not shown) [Compound 104, 3-(((3-amino-6-(2-hydroxyphenyl)pyridazin-4-yl)oxy)methyl)-N-(2-(1-(2-(2,6-dioxopiperidin-3-yl)-1,3-dioxoisoindolin-5-yl)piperidin-4-yl)ethyl)bicyclo[1.1.1]pentane-1-carboxamide] | < 50 | C (“C” indicates maximum degradation < 50%)
2 | Nc1nnc(-c2ccccc2O)cc1OCC12CC(C(=O)NCCOCc3cccc(COCCOc4cccc5c4C(=O)N(C4CCC(=O)NC4=O)C5=O)c3)(C1)C2 (stereo not shown) [Compound 85, 3-(((3-amino-6-(2-hydroxyphenyl)pyridazin-4-yl)oxy)methyl)-N-(2-((3-((2-((2-(2,6-dioxopiperidin-3-yl)-1,3-dioxoisoindolin-4-yl)oxy)ethoxy)methyl)benzyl)oxy)ethyl)bicyclo[1.1.1]pentane-1-carboxamide] | < 50 | C (“C” indicates maximum degradation < 50%)
3 | Nc1nnc(-c2ccccc2O)cc1OCC12CC(C(=O)N3CCC(CN4CCN(c5ccc6c(c5)C(=O)N(C5CCC(=O)NC5=O)C6=O)CC4)CC3)(C1)C2 (stereo not shown) [Compound 101, 5-(4-((1-(3-(((3-amino-6-(2-hydroxyphenyl)pyridazin-4-yl)oxy)methyl)bicyclo[1.1.1]pentane-1-carbonyl)piperidin-4-yl)methyl)piperazin-1-yl)-2-(2,6-dioxopiperidin-3-yl)isoindoline-1,3-dione] | < 50 | B (“B” indicates maximum degradation ≥ 50%)
4 | Nc1nnc(-c2ccccc2O)cc1OCC12CC(C(=O)N3CCN(c4ccc5c(c4)C(=O)N(C4CCC(=O)NC4=O)C5=O)CC3)(C1)C2 (stereo not shown) [Compound 54, 5-(4-(3-(((3-amino-6-(2-hydroxyphenyl)pyridazin-4-yl)oxy)methyl)bicyclo[1.1.1]pentane-1-carbonyl)piperazin-1-yl)-2-(2,6-dioxopiperidin-3-yl)isoindoline-1,3-dione] | < 50 | C (“C” indicates maximum degradation < 50%)
5 | Nc1nnc(-c2ccccc2O)cc1OCC12CC(CNC(=O)CCOCCOCCNc3ccc4c(c3)C(=O)N(C3CCC(=O)NC3=O)C4=O)(C1)C2 (stereo not shown) [Compound 6, N-[[3-([[3-amino-6-(2-hydroxyphenyl)pyridazin-4-yl]oxy]methyl)bicyclo[1.1.1]pentan-1-yl]methyl]-3-[2-(2-[[2-(2,6-dioxopiperidin-3-yl)-1,3-dioxoisoindol-5-yl]amino]ethoxy)ethoxy]propanamide] | < 50 | C (“C” indicates maximum degradation < 50%)
6 | Nc1nnc(-c2ccccc2O)cc1OCC12CC(C(=O)NCCNc3ccc4c(c3)C(=O)N(C3CCC(=O)NC3=O)C4=O)(C1)C2 (stereo not shown) [Compound 56, 3-(((3-amino-6-(2-hydroxyphenyl)pyridazin-4-yl)oxy)methyl)-N-(2-((2-(2,6-dioxopiperidin-3-yl)-1,3-dioxoisoindolin-5-yl)amino)ethyl)bicyclo[1.1.1]pentane-1-carboxamide] | < 50 | C (“C” indicates maximum degradation < 50%)
7 | Nc1nnc(-c2ccccc2O)cc1OCC12CC(C(=O)NCCOCc3cccc(COCCOc4ccc5c(c4)C(=O)N(C4CCC(=O)NC4=O)C5=O)c3)(C1)C2 (stereo not shown) [Compound 84, 3-(((3-amino-6-(2-hydroxyphenyl)pyridazin-4-yl)oxy)methyl)-N-(2-((3-((2-((2-(2,6-dioxopiperidin-3-yl)-1,3-dioxoisoindolin-5-yl)oxy)ethoxy)methyl)benzyl)oxy)ethyl)bicyclo[1.1.1]pentane-1-carboxamide; formic acid] | < 50 | C (“C” indicates maximum degradation < 50%)
8 | Nc1nnc(-c2ccccc2O)cc1OCC12CC(C(=O)NCCCC#Cc3ccc4c(c3)C(=O)N(C3CCC(=O)NC3=O)C4=O)(C1)C2 (stereo not shown) [Compound 89, 3-(((3-amino-6-(2-hydroxyphenyl)pyridazin-4-yl)oxy)methyl)-N-(5-(2-(2,6-dioxopiperidin-3-yl)-1,3-dioxoisoindolin-5-yl)pent-4-yn-1-yl)bicyclo[1.1.1]pentane-1-carboxamide] | < 50 | C (“C” indicates maximum degradation < 50%)

The next lines start with results.

Row | Dmax [1] [%] | Structure (SMILES) | BRM HiBit Degradation Maximum (%) [2]
9 | < 50 | Nc1nnc(-c2ccccc2O)cc1OCC12CC(CNC(=O)CCCOc3cccc4c3C(=O)N(C3CCC(=O)NC3=O)C4=O)(C1)C2 (stereo not shown) [Compound 2, N-[[3-([[3-amino-6-(2-hydroxyphenyl)pyridazin-4-yl]oxy]methyl)bicyclo[1.1.1]pentan-1-yl]methyl]-4-[[2-(2,6-dioxopiperidin-3-yl)-1,3-dioxoisoindol-4-yl]oxy]butanamide] | C (“C” indicates maximum degradation < 50%)
10 | < 50 | Cc1ncsc1-c1ccc(CNC(=O)[C@@H]2C[C@@H](O)CN2C(=O)[C@@H](NC(=O)CCCCC(=O)NCC23CC(COc4cc(-c5ccccc5O)nnc4N)(C2)C3)C(C)(C)C)cc1 [Compound 35, N1-((3-(((3-amino-6-(2-hydroxyphenyl)pyridazin-4-yl)oxy)methyl)bicyclo[1.1.1]pentan-1-yl)methyl)-N6-((S)-1-((2S,4R)-4-hydroxy-2-((4-(4-methylthiazol-5-yl)benzyl)carbamoyl)pyrrolidin-1-yl)-3,3-dimethyl-1-oxobutan-2-yl)adipamide] | C (“C” indicates maximum degradation < 50%)
11 | < 50 | Nc1nnc(-c2ccccc2O)cc1OCCC12CC(NC(=O)CCCCOc3cccc4c3C(=O)N(C3CCC(=O)NC3=O)C4=O)(C1)C2 (stereo not shown) [Compound 19, N-(3-(2-((3-amino-6-(2-hydroxyphenyl)pyridazin-4-yl)oxy)ethyl)bicyclo[1.1.1]pentan-1-yl)-5-((2-(2,6-dioxopiperidin-3-yl)-1,3-dioxoisoindolin-4-yl)oxy)pentanamide] | C (“C” indicates maximum degradation < 50%)
12 | < 50 | Cc1ncsc1-c1ccc(CNC(=O)[C@@H]2C[C@@H](O)CN2C(=O)[C@@H](NC(=O)COCCOCCOCCOCC(=O)NC23CC(CCOc4cc(-c5ccccc5O)nnc4N)(C2)C3)C(C)(C)C)cc1 [Compound 45, N1-(3-(2-((3-amino-6-(2-hydroxyphenyl)pyridazin-4-yl)oxy)ethyl)bicyclo[1.1.1]pentan-1-yl)-N14-((S)-1-((2S,4R)-4-hydroxy-2-((4-(4-methylthiazol-5-yl)benzyl)carbamoyl)pyrrolidin-1-yl)-3,3-dimethyl-1-oxobutan-2-yl)-3,6,9,12-tetraoxatetradecanediamide] | B (“B” indicates maximum degradation ≥ 50%)
13 | < 50 | Nc1nnc(-c2ccccc2O)cc1OCCC12CC(NC(=O)CCCCCCCCNc3cccc4c3C(=O)N(C3CCC(=O)NC3=O)C4=O)(C1)C2 (stereo not shown) [Compound 23, N-[3-(2-[[3-amino-6-(2-hydroxyphenyl)pyridazin-4-yl]oxy]ethyl)bicyclo[1.1.1]pentan-1-yl]-9-[[2-(2,6-dioxopiperidin-3-yl)-1,3-dioxoisoindol-4-yl]amino]nonanamide] | C (“C” indicates maximum degradation < 50%)
14 | < 50 | Nc1nnc(-c2ccccc2O)cc1OCCC12CC(NC(=O)C3CC3CNC(=O)COc3ccc4c(c3)C(=O)N(C3CCC(=O)NC3=O)C4=O)(C1)C2 (stereo not shown) [Compound 29, N-(3-(2-((3-amino-6-(2-hydroxyphenyl)pyridazin-4-yl)oxy)ethyl)bicyclo[1.1.1]pentan-1-yl)-2-((2-((2-(2,6-dioxopiperidin-3-yl)-1,3-dioxoisoindolin-5-yl)oxy)acetamido)methyl)cyclopropane-1-carboxamide] | C (“C” indicates maximum degradation < 50%)
15 | < 50 | Cc1ncsc1-c1ccc(CNC(=O)[C@@H]2C[C@@H](O)CN2C(=O)[C@@H](NC(=O)C23CC(COc4cc(-c5ccccc5O)nnc4N)(C2)C3)C(C)(C)C)cc1 [Compound 105, (2S,4R)-1-((S)-2-(3-(((3-amino-6-(2-hydroxyphenyl)pyridazin-4-yl)oxy)methyl)bicyclo[1.1.1]pentane-1-carboxamido)-3,3-dimethylbutanoyl)-4-hydroxy-N-(4-(4-methylthiazol-5-yl)benzyl)pyrrolidine-2-carboxamide] | C (“C” indicates maximum degradation < 50%)
16 | < 50 | CN(CCNC(=O)C12CC(COc3cc(-c4ccccc4O)nnc3N)(C1)C2)CCNc1cccc2c1C(=O)N(C1CCC(=O)NC1=O)C2=O (stereo not shown) [Compound 77, 3-(((3-amino-6-(2-hydroxyphenyl)pyridazin-4-yl)oxy)methyl)-N-(2-((2-((2-(2,6-dioxopiperidin-3-yl)-1,3-dioxoisoindolin-4-yl)amino)ethyl)(methyl)amino)ethyl)bicyclo[1.1.1]pentane-1-carboxamide] | C (“C” indicates maximum degradation < 50%)
17 | < 50 | Cc1ncsc1-c1ccc(CNC(=O)[C@@H]2C[C@@H](O)CN2C(=O)[C@@H](NC(=O)CCC(=O)NC23CC(CCOc4cc(-c5ccccc5O)nnc4N)(C2)C3)C(C)(C)C)cc1 [Compound 42, N1-(3-(2-((3-amino-6-(2-hydroxyphenyl)pyridazin-4-yl)oxy)ethyl)bicyclo[1.1.1]pentan-1-yl)-N4-((S)-1-((2S,4R)-4-hydroxy-2-((4-(4-methylthiazol-5-yl)benzyl)carbamoyl)pyrrolidin-1-yl)-3,3-dimethyl-1-oxobutan-2-yl)succinamide] | C (“C” indicates maximum degradation < 50%)
